# Source: ChEMBL document CHEMBL2424647, “Molecular docking studies of the interaction between propargylic enol ethers and human DNA topoisomerase IIα” (2013)
# Columns and labels:
# Format in all cases: functional
# HeLa = assay: Growth inhibition of human HeLa after 48 hrs
# SW1573 = assay: Growth inhibition of human SW1573 after 48 hrs; conditions: SW1573, 48 h
# HBL-100 = assay: Growth inhibition of human HBL100 after 48 hrs; conditions: HBL-100, 48 h
# WiDr = assay: Growth inhibition of human WiDr after 48 hrs
SMILES,GI50 (HeLa) [µM],GI50 (SW1573) [µM],GI50 (HBL-100) [nM],GI50 (WiDr) [µM]
CCCCC(C#CC(=O)OC)O/C=C/C(=O)OC (racemic),3.4,0.42,470,3.6
CCCCC[C@@H](C#CC(=O)OC)O/C=C/C(=O)OC,2.9,8.4,2300,24
CCCCC[C@H](C#CC(=O)OC)O/C=C/C(=O)OC,2.6,5.5,3300,26
CCCCCC(C#CC(=O)OC)O/C=C/C(=O)OC (racemic),17,1.3,2700,13
